Assay results published in patent US20260297083A1, “SUBSTITUTED ACETYLENE COMPOUND DERIVATIVES AND THEIR PHARMACEUTICAL USE” (AVELOS THERAPEUTICS INC., priority 2023, published 2026).

system: DLD-1 BRCA2(−/−) Cell; assay: Cell viability assay (Resazurin) in DLD1-BRCA2 cells; type: cell-based; details: Homo sapiens, DLD-1, 336 h, 14 days, 1,500 cells/well, final DMSO 1%
Method in brief: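 DLD1-BRCA2 KG cells seeded at 1,500/well (parental 600/well) in RPMI-1640 with 10% FBS, compound added after 4 h (1% DMSO), media replaced every 3-4 days over 14 days at 37° C. Viability read by resazurin (0.1 mg/ml, 4 h) fluorescence at Ex/Em 560/590 nm; IC50 fitted.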

For `Cc1cc(C(F)(F)F)cc(N2[C@H](C(=O)N(CC#Cc3ccc(F)cn3)c3ccc(F)c(C)c3)CCS2(=O)=O)n1` [Example 93, (S)-N-(4-fluoro-3-methylphenyl)-N-(3-(5-fluoropyridin-2-yl)prop-2-yn-1-yl)-2-(6-methyl-4-(trifluoromethyl)pyridin-2-yl)isothiazolidine-3-carboxamide 1,1-dioxide], which IC50 is on record?
Its IC50 is under 1000 nM.

With `Cc1cc(C(F)(F)F)cc(N2[C@H](C(=O)N(CC#Cc3ccc(F)c(C(C)C)n3)c3ccc(F)c(C)c3)CCS2(=O)=O)n1` [Example 94, (S)-N-(4-fluoro-3-methylphenyl)-N-(3-(5-fluoro-6-isopropylpyridin-2-yl)prop-2-yn-1-yl)-2-(6-methyl-4-(trifluoromethyl)pyridin-2-yl)isothiazolidine-3-carboxamide 1,1-dioxide] as the molecule, how does the IC50 read?
Its IC50 is 1100 to 5000 nM.

`Cc1cc(C(F)(F)F)cc(N2[C@H](C(=O)N(CC#Cc3ccc(C(N)=O)nc3)c3ccc(F)c(C)c3)CCS2(=O)=O)n1` [Example 95, (S)-N-(3-(6-carbamoylpyridin-3-yl)prop-2-yn-1-yl)-N-(4-fluoro-3-methylphenyl)-2-(6-methyl-4-(trifluoromethyl)pyridin-2-yl)isothiazolidine-3-carboxamide 1,1-dioxide] was tested. Which IC50 did it give?
Its IC50 is under 1000 nM.

With `Cc1cc(C(F)(F)F)cc(N2[C@H](C(=O)N(CC#Cc3cnc(C(N)=O)c(F)c3)c3ccc(F)c(C)c3)CCS2(=O)=O)n1` [Example 96, (S)-N-(3-(6-carbamoyl-5-fluoropyridin-3-yl)prop-2-yn-1-yl)-N-(4-fluoro-3-methylphenyl)-2-(6-methyl-4-(trifluoromethyl)pyridin-2-yl)isothiazolidine-3-carboxamide 1,1-dioxide] as the molecule, how does the IC50 read?
The IC50 was under 1000 nM.

Which IC50 does the source give for `Cc1cc(C(F)(F)F)cc(N2[C@H](C(=O)N(CC#Cc3ccc(C(N)=O)cn3)c3ccc(F)c(C)c3)CCS2(=O)=O)n1` [Example 97, (S)-N-(3-(5-carbamoylpyridin-2-yl)prop-2-yn-1-yl)-N-(4-fluoro-3-methylphenyl)-2-(6-methyl-4-(trifluoromethyl)pyridin-2-yl)isothiazolidine-3-carboxamide 1,1-dioxide] here?
The IC50 was under 1000 nM.

Which IC50 does the source give for `Cc1cc(C(F)(F)F)cc(N2[C@H](C(=O)N(CC#Cc3cnc4c(c3)CN(C)C4=O)c3ccc(F)c(C)c3)CCS2(=O)=O)n1` [Example 98, (S)-N-(4-fluoro-3-methylphenyl)-2-(6-methyl-4-(trifluoromethyl)pyridin-2-yl)-N-(3-(6-methyl-7-oxo-6,7-dihydro-5H-pyrrolo[3,4-b]pyridin-3-yl)prop-2-yn-1-yl)isothiazolidine-3-carboxamide 1,1-dioxide] here?
The IC50 was under 1000 nM.

With `Cc1cc(C(F)(F)F)cc(N2[C@H](C(=O)N(CC#Cc3cnc4c(c3)C(C)(C)N(C)C4=O)c3ccc(F)c(C)c3)CCS2(=O)=O)n1` [Example 99, (S)-N-(4-fluoro-3-methylphenyl)-2-(6-methyl-4-(trifluoromethyl)pyridin-2-yl)-N-(3-(5,5,6-trimethyl-7-oxo-6.7-dihydro-5H-pyrrolo[3,4-b]pyridin-3-yl)prop-2-yn-1-yl)isothiazolidine-3-carboxamide 1,1-dioxide] as the molecule, how does the IC50 read?
Its IC50 is 1100 to 5000 nM.

`Cc1cc(C(F)(F)F)cc(N2[C@H](C(=O)N(CC#Cc3cnc4c(c3)C(=O)N(C)C4=O)c3ccc(F)c(C)c3)CCS2(=O)=O)n1` [Example 100, (S)-N-(4-fluoro-3-methylphenyl)-2-(6-methyl-4-(trifluoromethyl)pyridin-2-yl)-N-(3-(6-methyl-5,7-dioxo-6,7-dihydro-5H-pyrrolo[3,4-b]pyridin-3-yl)prop-2-yn-1-yl)isothiazolidine-3-carboxamide 1,1-dioxide] was tested. Which IC50 did it give?
Its IC50 is over 5100 nM.

How did the IC50 turn out when `Cc1cc(C(F)(F)F)cc(N2[C@H](C(=O)N(CC#Cc3n[nH]c(=O)c4ccccc34)c3ccc(F)c(C)c3)CCS2(=O)=O)n1` [Example 101, (S)-N-(4-fluoro-3-methylphenyl)-2-(6-methyl-4-(trifluoromethyl)pyridin-2-yl)-N-(3-(4-oxo-3,4-dihydrophthalazin-1-yl)prop-2-yn-1-yl)isothiazolidine-3-carboxamide 1,1-dioxide] was run?
Its IC50 is 1100 to 5000 nM.

For `Cc1cc(C(F)(F)F)cc(N2[C@H](C(=O)N(CC#Cc3cncn3C)c3ccc(F)c(C)c3)CCS2(=O)=O)n1` [Example 102, (S)-N-(4-fluoro-3-methylphenyl)-N-(3-(1-methyl-1H-imidazol-5-yl)prop-2-yn-1-yl)-2-(6-methyl-4-(trifluoromethyl)pyridin-2-yl)isothiazolidine-3-carboxamide 1,1-dioxide], which IC50 is on record?
The IC50 was 1100 to 5000 nM.

How did the IC50 turn out when `Cc1cc(C(F)(F)F)cc(N2[C@H](C(=O)N(CC#Cc3ncnc(N4CCOCC4)n3)c3ccc(F)c(C)c3)CCS2(=O)=O)n1` [Example 103, (S)-N-(4-fluoro-3-methylphenyl)-2-(6-methyl-4-(trifluoromethyl)pyridin-2-yl)-N-(3-(4-morpholino-1,3,5-triazin-2-yl)prop-2-yn-1-yl)isothiazolidine-3-carboxamide 1,1-dioxide] was run?
The IC50 was under 1000 nM.

With `Cc1cc(C(F)(F)F)cc(N2[C@H](C(=O)N(CC#Cc3nc(C(N)=O)co3)c3ccc(F)c(C)c3)CCS2(=O)=O)n1` [Example 104, (S)-2-(3-(N-(4-fluoro-3-methylphenyl)-2-(6-methyl-4-(trifluoromethyl)pyridin-2-yl)-1,1-dioxidoisothiazolidine-3-carboxamido)prop-1-yn-1-yl)oxazole-4-carboxamide] as the molecule, how does the IC50 read?
The IC50 was under 1000 nM.

With `Cc1cc(C(F)(F)F)cc(N2[C@H](C(=O)N(CC#Cc3ccc(C(N)=O)cc3)c3ccc(F)c(C)c3)CCS2(=O)=O)n1` [Example 105, (S)-N-(3-(4-carbamoylphenyl)prop-2-yn-1-yl)-N-(4-fluoro-3-methylphenyl)-2-(6-methyl-4-(trifluoromethyl)pyridin-2-yl)isothiazolidine-3-carboxamide 1,1-dioxide] as the molecule, how does the IC50 read?
Its IC50 is 1100 to 5000 nM.

Which IC50 does the source give for `Cc1cc(C(F)(F)F)cc(N2[C@H](C(=O)N(CC#Cc3cccc(C(N)=O)c3)c3ccc(F)c(C)c3)CCS2(=O)=O)n1` [Example 106, (S)-N-(3-(3-carbamoylphenyl)prop-2-yn-1-yl)-N-(4-fluoro-3-methylphenyl)-2-(6-methyl-4-(trifluoromethyl)pyridin-2-yl)isothiazolidine-3-carboxamide 1,1-dioxide] here?
The IC50 was 1100 to 5000 nM.

How did the IC50 turn out when `Cc1cccc(N(CC#Cc2ccc(N)nn2)C(=O)[C@@H]2CN(C)S(=O)(=O)N2c2cc(C(F)(F)F)cc(C)n2)c1` [Example 107, (3S)-N-[3-(6-aminopyridazin-3-yl)prop-2-ynyl]-5-methyl-2-[6-methyl-4-(trifluoromethyl)-2-pyridyl]-N-(m-tolyl)-1,1-dioxo-1,2,5-thiadiazolidine-3-carboxamide] was run?
The IC50 was 1100 to 5000 nM.

Which IC50 does the source give for `Cc1cccc(N(CC#Cc2cnc(N)cn2)C(=O)[C@@H]2CN(C)S(=O)(=O)N2c2cc(C(F)(F)F)cc(C)n2)c1` [Example 108, (S)-N-(3-(5-aminopyrazin-2-yl)prop-2-yn-1-yl)-5-methyl-2-(6-methyl-4-(trifluoromethyl)pyridin-2-yl)-N-(m-tolyl)-1,2,5-thiadiazolidine-3-carboxamide 1,1-dioxide] here?
The IC50 was 1100 to 5000 nM.

Which IC50 does the source give for `Cc1cc(C(F)(F)F)cc(N2[C@H](C(=O)N(CC#Cc3ccc(N)nn3)c3ccc(F)c(C)c3)CN(C)S2(=O)=O)n1` [Example 109, (S)-N-(3-(6-aminopyridazin-3-yl)prop-2-yn-1-yl)-N-(4-fluoro-3-methylphenyl)-5-methyl-2-(6-methyl-4-(trifluoromethyl)pyridin-2-yl)-1,2,5-thiadiazolidine-3-carboxamide 1,1-dioxide] here?
Its IC50 is 1100 to 5000 nM.
